Source: the supplement of paper PMC10307832

What was measured:
Experiment in all cases: relative viability (nuclei count vs DMSO), 5 days (fraction); higher = more cells survive
[1] = system: 201T
Summary of the method: (§1)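 Relative viability divides the nuclei count in treated wells by that in vehicle wells. Lung cancer cell lines were seeded in 1536-well plates, dosed by pin tool the next day, and fixed and stained after 5 days in one step with final 0.05% Triton X-100, 1% formaldehyde and 1 ug/ml Hoechst. Dosing was a single drug or a fixed anchor-drug dose plus five library-drug doses (not always all listed) in √10 steps, and values are medians of duplicate plates imaged at 4×.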

[2] = system: BEN
Summary of the method: as §1

[3] = system: EMC-BAC-2
Summary of the method: as §1

[4] = system: HARA
Summary of the method: as §1

[5] = system: HCC-44
Summary of the method: as §1

[6] = system: LOU-NH91
Summary of the method: as §1

[7] = system: NCI-H1395
Summary of the method: as §1

[8] = system: NCI-H1666
Summary of the method: as §1

[9] = system: NCI-H1993
Summary of the method: as §1

[10] = system: NCI-H2009
Summary of the method: as §1

[11] = system: NCI-H2023
Summary of the method: as §1

[12] = system: NCI-H2087
Summary of the method: as §1

[13] = system: NCI-H2126
Summary of the method: as §1

[14] = system: NCI-H2347
Summary of the method: as §1

[15] = system: NCI-H23
Summary of the method: as §1

[16] = system: NCI-H3122
Summary of the method: as §1

[17] = system: NCI-H441
Summary of the method: as §1

[18] = system: NCI-H596
Summary of the method: as §1

[19] = system: NCI-H647
Summary of the method: as §1

[20] = system: NCI-H727
Summary of the method: as §1

[21] = system: NCI-H838
Summary of the method: as §1

C[C@@H]1CN(CC(=O)Nc2ccc3c(c2)Cc2cccc(-c4cc(=O)cc(N5CCOCC5)o4)c2S3)C[C@H](C)O1 + CC1(C)CCC(c2ccc(Cl)cc2)=C(CN2CCN(c3ccc(C(=O)NS(=O)(=O)c4ccc(N[C@H](CCN5CCOCC5)CSc5ccccc5)c(S(=O)(=O)C(F)(F)F)c4)cc3)CC2)C1 [Navitoclax] (partner 0.5 µM)
relative viability ([1]; first compound 0.04 µM): 1.21 | relative viability ([1]; first compound 0.1265 µM): 1.2 | relative viability ([1]; first compound 0.4 µM): 1.19 | relative viability ([1]; first compound 4 µM): 1.14 | relative viability ([2]; first compound 0.04 µM): 0.0641 | relative viability ([2]; first compound 0.1265 µM): 0.0514 | relative viability ([2]; first compound 0.4 µM): 0.0961 | relative viability ([2]; first compound 4 µM): 0.0488 | relative viability ([3]; first compound 0.04 µM): 1.16 | relative viability ([3]; first compound 0.1265 µM): 1.12 | relative viability ([3]; first compound 0.4 µM): 1.17 | relative viability ([3]; first compound 4 µM): 1.09 | relative viability ([4]; first compound 0.04 µM): 1.2 | relative viability ([4]; first compound 0.1265 µM): 1.12 | relative viability ([4]; first compound 0.4 µM): 1.21 | relative viability ([4]; first compound 4 µM): 1.14 | relative viability ([5]; first compound 0.04 µM): 0.987 | relative viability ([5]; first compound 0.1265 µM): 0.894 | relative viability ([5]; first compound 0.4 µM): 0.835 | relative viability ([5]; first compound 4 µM): 0.943 | relative viability ([6]; first compound 0.04 µM): 0.701 | relative viability ([6]; first compound 0.1265 µM): 0.617 | relative viability ([6]; first compound 0.4 µM): 0.702 | relative viability ([6]; first compound 4 µM): 0.66 | relative viability ([7]; first compound 0.04 µM): 1.16 | relative viability ([7]; first compound 0.1265 µM): 1.26 | relative viability ([7]; first compound 0.4 µM): 1.35 | relative viability ([7]; first compound 4 µM): 1.16 | relative viability ([8]; first compound 0.04 µM): 1.14 | relative viability ([8]; first compound 0.1265 µM): 1.12 | relative viability ([8]; first compound 0.4 µM): 0.862 | relative viability ([8]; first compound 4 µM): 0.781 | relative viability ([9]; first compound 0.04 µM): 0.933 | relative viability ([9]; first compound 0.1265 µM): 0.868 | relative viability ([9]; first compound 0.4 µM): 0.644 | relative viability ([9]; first compound 4 µM): 0.865 | relative viability ([10]; first compound 0.04 µM): 1.17 | relative viability ([10]; first compound 0.1265 µM): 1.1 | relative viability ([10]; first compound 0.4 µM): 1.15 | relative viability ([10]; first compound 4 µM): 0.915 | relative viability ([11]; first compound 0.04 µM): 0.993 | relative viability ([11]; first compound 0.1265 µM): 0.921 | relative viability ([11]; first compound 0.4 µM): 0.923 | relative viability ([11]; first compound 4 µM): 0.796 | relative viability ([12]; first compound 0.04 µM): 0.971 | relative viability ([12]; first compound 0.1265 µM): 1.1 | relative viability ([12]; first compound 0.4 µM): 0.909 | relative viability ([12]; first compound 4 µM): 0.923 | relative viability ([13]; first compound 0.04 µM): 0.879 | relative viability ([13]; first compound 0.1265 µM): 0.868 | relative viability ([13]; first compound 0.4 µM): 0.808 | relative viability ([13]; first compound 4 µM): 0.851 | relative viability ([14]; first compound 0.04 µM): 0.768 | relative viability ([14]; first compound 0.1265 µM): 0.81 | relative viability ([14]; first compound 0.4 µM): 0.769 | relative viability ([14]; first compound 4 µM): 0.672 | relative viability ([15]; first compound 0.04 µM): 1 | relative viability ([15]; first compound 0.1265 µM): 1.03 | relative viability ([15]; first compound 0.4 µM): 0.708 | relative viability ([15]; first compound 4 µM): 0.668 | relative viability ([16]; first compound 0.04 µM): 1.05 | relative viability ([16]; first compound 0.1265 µM): 1.03 | relative viability ([16]; first compound 0.4 µM): 0.965 | relative viability ([16]; first compound 4 µM): 0.95 | relative viability ([17]; first compound 0.04 µM): 0.427 | relative viability ([17]; first compound 0.4 µM): 0.576 | relative viability ([17]; first compound 4 µM): 0.318 | relative viability ([18]; first compound 0.04 µM): 0.958 | relative viability ([18]; first compound 0.1265 µM): 0.994 | relative viability ([18]; first compound 0.4 µM): 0.934 | relative viability ([18]; first compound 4 µM): 0.992 | relative viability ([19]; first compound 0.04 µM): 0.989 | relative viability ([19]; first compound 0.1265 µM): 1.09 | relative viability ([19]; first compound 0.4 µM): 1.09 | relative viability ([19]; first compound 4 µM): 0.591 | relative viability ([20]; first compound 0.04 µM): 0.482 | relative viability ([20]; first compound 0.1265 µM): 0.494 | relative viability ([20]; first compound 0.4 µM): 0.412 | relative viability ([20]; first compound 4 µM): 0.381 | relative viability ([21]; first compound 0.04 µM): 1.17 | relative viability ([21]; first compound 0.1265 µM): 1.16 | relative viability ([21]; first compound 0.4 µM): 1.07 | relative viability ([21]; first compound 4 µM): 0.896
